From ChEMBL document CHEMBL3085649, “2'-Deoxyuridine 5'-monophosphate substrate displacement in thymidylate synthase through 6-hydroxy-2H-naphtho[1,8-bc]furan-2-one derivatives” (J Med Chem, 2013)
Active and inactive are the calls of the source. No cut-off for these calls is given here.

Legend:
[1] = target: Thymidylate synthase (Homo sapiens) (UniProt P04818); experiment: Inhibition of human thymidylate synthase using MTHF and dUMP as substrates at 100 uM
[2] = target: T1, Thymidylate synthase (Lactobacillus casei) (UniProt P00469); experiment: Inhibition of Lactobacillus casei thymidylate synthase using MTHF and dUMP as substrates at 100 uM; details: Lacticaseibacillus casei
T1 sequence (whole entry): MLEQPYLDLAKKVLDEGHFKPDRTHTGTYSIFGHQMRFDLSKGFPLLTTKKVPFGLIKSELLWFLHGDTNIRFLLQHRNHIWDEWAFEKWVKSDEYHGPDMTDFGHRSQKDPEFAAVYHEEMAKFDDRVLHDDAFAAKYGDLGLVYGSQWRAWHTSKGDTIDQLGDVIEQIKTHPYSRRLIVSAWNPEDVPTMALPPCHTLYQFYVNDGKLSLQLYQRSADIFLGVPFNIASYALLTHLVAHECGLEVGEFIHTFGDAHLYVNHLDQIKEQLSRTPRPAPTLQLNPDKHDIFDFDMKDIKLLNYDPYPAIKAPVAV

Escherichia coli = experiment: Inhibition of Escherichia coli thymidylate synthase using MTHF and dUMP as substrates at 100 uM
Enterococcus faecalis = experiment: Inhibition of Enterococcus fecalis thymidylate synthase using MTHF and dUMP as substrates at 100 uM
[3] = target: T2, Thymidylate synthase (Pneumocystis carinii) (UniProt P13100); experiment: Inhibition of Pneumocystis carinii thymidylate synthase using MTHF and dUMP as substrates at 100 uM
T2 sequence (whole entry): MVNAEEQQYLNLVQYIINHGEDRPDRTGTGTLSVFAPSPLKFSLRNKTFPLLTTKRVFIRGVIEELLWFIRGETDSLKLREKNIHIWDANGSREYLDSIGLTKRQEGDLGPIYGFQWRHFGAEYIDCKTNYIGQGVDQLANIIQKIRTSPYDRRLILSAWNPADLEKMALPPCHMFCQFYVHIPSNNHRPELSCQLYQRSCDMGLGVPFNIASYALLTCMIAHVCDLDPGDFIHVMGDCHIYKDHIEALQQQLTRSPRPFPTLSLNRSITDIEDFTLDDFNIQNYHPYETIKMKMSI

Thymidylate synthase [4] = target: T3, Thymidylate synthase (Lactobacillus casei, UniProt P00469); experiment: Inhibition of Lactobacillus casei thymidylate synthase using MTHF and dUMP as substrates; parameters: species or system Lacticaseibacillus casei
T3 sequence (P00469 whole entry): T1 sequence (whole entry)

Thymidylate synthase [5] = target: T4, Thymidylate synthase (Pneumocystis carinii, UniProt P13100); experiment: Inhibition of Pneumocystis carinii thymidylate synthase using MTHF and dUMP as substrates
T4 sequence (P13100 whole entry): T2 sequence (whole entry)

[6] = Inhibition of Escherichia coli thymidylate synthase using MTHF and dUMP as substrates
[7] = Inhibition of Enterococcus fecalis thymidylate synthase using MTHF and dUMP as substrates; parameters: species or system Enterococcus faecalis

Thymidylate synthase (Homo sapiens), sequence (P04818 2-313 limits assumed): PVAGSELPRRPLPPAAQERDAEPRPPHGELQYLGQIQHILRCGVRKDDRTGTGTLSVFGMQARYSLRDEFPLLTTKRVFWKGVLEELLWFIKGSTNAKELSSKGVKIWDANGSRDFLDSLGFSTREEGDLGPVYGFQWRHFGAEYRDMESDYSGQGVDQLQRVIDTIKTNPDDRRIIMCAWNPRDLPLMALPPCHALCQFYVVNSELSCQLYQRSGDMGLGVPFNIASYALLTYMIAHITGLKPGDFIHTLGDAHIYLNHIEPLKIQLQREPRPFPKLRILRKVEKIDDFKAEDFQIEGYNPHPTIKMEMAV

Row | SMILES | inhibition [1] | inhibition [2] | inhibition (Escherichia coli) | inhibition (Enterococcus faecalis) | inhibition [3] | Ki (Thymidylate synthase [4]) [µM] | Ki (Thymidylate synthase [5]) [µM] | Ki [6] [µM] | Ki [7] [µM]
1 | O=C(Oc1ccc2c3c(cccc13)C(=O)O2)c1ccc(SC(F)(F)F)cc1 | inactive | inactive | inactive | inactive | inactive |  |  |  | 
2 | O=C1Oc2ccc(OC(=O)C3CCCCC3)c3cccc1c23 | inactive |  |  | inactive |  | 49 | 18 | 66 | 
3 | C=CC(=O)Oc1ccc2c3c(cccc13)C(=O)O2 |  |  |  |  |  | 10 | 19 |  | 41
4 | N#Cc1cccc(C(=O)Oc2ccc3c4c(cccc24)C(=O)O3)c1 |  |  |  |  |  | 0.39 | 0.31 | 4 | 14
5 | O=C(Oc1ccc2c3c(cccc13)C(=O)O2)c1ccco1 |  |  | inactive |  |  | 13 | 15 |  | 20
6 | O=C(Oc1ccc2c3c(cccc13)C(=O)O2)c1cccc(C(F)(F)F)c1 | inactive |  | inactive |  | inactive | 33 |  |  | 41
7 | O=C(Oc1ccc2c3c(cccc13)C(=O)O2)c1ccc([N+](=O)[O-])cc1 |  |  |  |  |  | 1.2 | 3.5 | 6 | 27
8 | CC(C)COC(=O)Oc1ccc2c3c(cccc13)C(=O)O2 | inactive |  | inactive | inactive | inactive | 9 |  |  | 
9 | O=C(Oc1ccc2c3c(cccc13)C(=O)O2)c1ccc2c(c1)OCO2 | inactive | inactive | inactive | inactive | inactive |  |  |  | 
10 | C/C=C/C(=O)Oc1ccc2c3c(cccc13)C(=O)O2 | inactive |  | inactive | inactive |  | 6 | 10 |  | 
11 | CCOC(=O)Oc1ccc2c3c(cccc13)C(=O)O2 |  |  |  |  |  | 10 | 34 | 67 | 37
